From BigSolDB 2.1

O=C1OC(=O)c2cc(Cl)ccc21
solubility (mole fraction)
Settings | 283.15 K | 288.15 K | 293.15 K | 298.15 K | 303.15 K | 308.15 K | 313.15 K | 318.15 K | 323.15 K | 328.15 K
in acetonitrile | 0.102 | 0.121 | 0.143 | 0.167 | 0.194 | 0.221 | 0.249 | 0.277 | 0.304 | 0.331
in cyclohexane | 0.000482 | 0.000684 | 0.000895 | 0.00109 | 0.00139 | 0.00161 | 0.00203 | 0.00246 | 0.00315 | 0.00399
in methanol | 0.0848 | 0.0944 | 0.118 | 0.136 | 0.167 | 0.196 | 0.228 | 0.266 | 0.309 | 0.356
in methyl acetate | 0.134 | 0.163 | 0.19 | 0.216 | 0.241 | 0.269 | 0.296 | 0.33 | 0.362 | 0.407
in tert-amyl alcohol | 0.00738 | 0.00942 | 0.0129 | 0.0166 | 0.0219 | 0.0274 | 0.0376 | 0.0489 | 0.065 | 0.0823
in tetrachloromethane | 0.00888 | 0.0103 | 0.0128 | 0.0142 | 0.0169 | 0.0191 | 0.0212 | 0.0233 | 0.0254 | 0.0274

O=C1OC(=O)c2c(Cl)cccc21
solubility (mole fraction)
Settings | 283.15 K | 288.15 K | 293.15 K | 298.15 K | 303.15 K | 308.15 K | 313.15 K | 318.15 K | 323.15 K | 328.15 K
in acetonitrile | 0.0676 | 0.0793 | 0.092 | 0.106 | 0.123 | 0.142 | 0.165 | 0.193 | 0.225 | 0.263
in cyclohexane | 0.00042 | 0.000507 | 0.000554 | 0.000764 | 0.000909 | 0.00108 | 0.00136 | 0.00176 | 0.00222 | 0.00277
in methanol | 0.0637 | 0.0698 | 0.0766 | 0.09 | 0.0968 | 0.104 | 0.116 | 0.126 | 0.144 | 0.161
in methyl acetate | 0.0882 | 0.0987 | 0.112 | 0.123 | 0.145 | 0.157 | 0.176 | 0.198 | 0.223 | 0.252
in tert-amyl alcohol | 0.00423 | 0.00548 | 0.00677 | 0.00875 | 0.0113 | 0.0125 | 0.0146 | 0.0184 | 0.0228 | 0.0288
in tetrachloromethane | 0.00307 | 0.004 | 0.00497 | 0.00605 | 0.00729 | 0.00873 | 0.0104 | 0.0125 | 0.0146 | 0.0177
